The values that follow are results of earlier work, collected in patent publication US20240164409A1, “A METHOD OF REDUCING METHANE PRODUCTION IN A RUMINANT ANIMAL” (DIT AgTech Limited, priority 2021, published 2024).

Converted amounts (≈) assume the structure as drawn.

The conditions of this data set: for Characterised as: water solubility in words.

On to `O=[N+]([O-])OCCCO` [3-nitrooxypropanol], for which the Characterised as entry is on record as “Soluble”. Take `BrC(Br)Br` [Bromoform]: the Solubility in water was 3.2 g/L (≈ 12.7 mM) and the Characterised as result was “Sparingly soluble”.
